Measurements published in PMC7486443, “Generation of Phenothiazine with Potent Anti-TLK1 Activity for Prostate Cancer Therapy” (iScience, 2020).

What was measured:
Test in all cases: biochemical
Design in all cases: DiscoverX KINOMEscan scanMAX competition binding panel, single concentration, percent of control; remaining binding: dose or concentration left out as unconfirmed
Settings in all cases: KINOMEscan binding, percent of control; read-out: Table S4_SCANMAX REPORT - related to Fig. 1 / Percent Control
TAOK2 = TAOK2 (Homo sapiens, UniProt Q9UL54)
FLT3-autoinhibited = FLT3-autoinhibited (Homo sapiens, UniProt P36888)
CSNK1G3 = CSNK1G3 (Homo sapiens, UniProt Q9Y6M4)
CSNK1G3, sequence (Q9Y6M4 whole entry): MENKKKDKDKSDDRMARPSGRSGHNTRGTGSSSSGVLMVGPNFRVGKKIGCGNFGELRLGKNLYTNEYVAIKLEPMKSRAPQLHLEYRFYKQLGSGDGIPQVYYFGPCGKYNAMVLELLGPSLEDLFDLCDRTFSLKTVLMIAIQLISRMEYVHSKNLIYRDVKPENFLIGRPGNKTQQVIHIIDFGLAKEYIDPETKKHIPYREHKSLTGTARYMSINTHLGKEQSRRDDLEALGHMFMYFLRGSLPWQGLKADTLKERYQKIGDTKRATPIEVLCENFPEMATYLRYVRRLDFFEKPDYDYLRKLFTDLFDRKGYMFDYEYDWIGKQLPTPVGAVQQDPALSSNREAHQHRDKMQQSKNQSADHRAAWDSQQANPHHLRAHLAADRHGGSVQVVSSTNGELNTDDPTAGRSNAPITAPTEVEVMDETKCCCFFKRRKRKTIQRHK

FLT3(R834Q) = FLT3(R834Q) (Homo sapiens, UniProt P36888, R834Q)
CDC2L5 = target: T1, CDC2L5 (Homo sapiens, UniProt Q14004)
T1 construct: gene CDK13

NEK11 = NEK11 (Homo sapiens, UniProt Q8NG66)
PIP5K2C = target: T2, PIP5K2C (Homo sapiens, UniProt Q8TBX8)
T2 construct: gene PIP4K2C

SRMS = SRMS (Homo sapiens, UniProt Q9H3Y6)
SRMS, sequence (Q9H3Y6 whole entry): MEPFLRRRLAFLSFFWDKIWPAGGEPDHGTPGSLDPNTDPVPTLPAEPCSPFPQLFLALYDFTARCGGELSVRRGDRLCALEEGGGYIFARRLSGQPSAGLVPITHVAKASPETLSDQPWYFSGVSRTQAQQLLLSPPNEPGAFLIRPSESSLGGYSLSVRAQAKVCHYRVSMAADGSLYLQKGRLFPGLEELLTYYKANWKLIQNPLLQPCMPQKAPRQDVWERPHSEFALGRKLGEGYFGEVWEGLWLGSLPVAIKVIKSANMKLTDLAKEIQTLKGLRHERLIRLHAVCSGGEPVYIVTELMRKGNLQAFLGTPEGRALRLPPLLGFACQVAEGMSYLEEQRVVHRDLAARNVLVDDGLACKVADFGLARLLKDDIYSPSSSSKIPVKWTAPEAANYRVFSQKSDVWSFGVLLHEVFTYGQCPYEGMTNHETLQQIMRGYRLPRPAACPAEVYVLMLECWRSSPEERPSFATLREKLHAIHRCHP

FLT3(ITD,D835V) = FLT3(ITD,D835V) (Homo sapiens, UniProt P36888, D835V/ITD)
CAMK2B = CAMK2B (Homo sapiens, UniProt Q13554)
ABL1-phosphorylated = target: T3, ABL1-phosphorylated (Homo sapiens, UniProt P00519)
T3 construct: phosphorylated
T3 sequence (P00519 whole entry): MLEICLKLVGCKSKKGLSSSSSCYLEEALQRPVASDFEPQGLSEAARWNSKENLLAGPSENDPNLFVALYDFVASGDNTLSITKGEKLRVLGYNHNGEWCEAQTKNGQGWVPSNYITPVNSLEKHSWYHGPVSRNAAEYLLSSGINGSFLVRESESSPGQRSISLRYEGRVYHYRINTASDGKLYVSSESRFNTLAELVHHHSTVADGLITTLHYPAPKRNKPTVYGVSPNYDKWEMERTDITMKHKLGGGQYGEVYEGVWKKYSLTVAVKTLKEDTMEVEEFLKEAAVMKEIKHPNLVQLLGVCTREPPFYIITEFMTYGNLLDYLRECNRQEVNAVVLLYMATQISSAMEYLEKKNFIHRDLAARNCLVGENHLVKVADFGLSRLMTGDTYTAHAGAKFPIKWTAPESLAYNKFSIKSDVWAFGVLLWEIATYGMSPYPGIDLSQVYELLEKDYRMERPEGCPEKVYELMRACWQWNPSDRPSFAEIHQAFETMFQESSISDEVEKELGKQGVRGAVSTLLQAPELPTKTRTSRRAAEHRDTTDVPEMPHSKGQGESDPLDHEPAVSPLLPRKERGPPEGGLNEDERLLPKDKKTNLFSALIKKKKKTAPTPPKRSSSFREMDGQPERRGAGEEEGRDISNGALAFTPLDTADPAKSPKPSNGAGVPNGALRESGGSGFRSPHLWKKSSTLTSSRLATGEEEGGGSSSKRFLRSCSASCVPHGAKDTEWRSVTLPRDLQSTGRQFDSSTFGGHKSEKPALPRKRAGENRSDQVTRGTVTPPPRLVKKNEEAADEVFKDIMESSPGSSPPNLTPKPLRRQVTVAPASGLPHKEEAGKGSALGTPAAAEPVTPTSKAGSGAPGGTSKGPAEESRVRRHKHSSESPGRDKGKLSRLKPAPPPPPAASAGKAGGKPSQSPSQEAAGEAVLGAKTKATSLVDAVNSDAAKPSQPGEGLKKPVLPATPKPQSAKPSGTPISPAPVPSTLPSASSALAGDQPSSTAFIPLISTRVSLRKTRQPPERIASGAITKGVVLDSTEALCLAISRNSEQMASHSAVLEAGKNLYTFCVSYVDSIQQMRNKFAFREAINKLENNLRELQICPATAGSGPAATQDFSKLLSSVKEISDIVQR

ALK(L1196M) = ALK(L1196M) (Homo sapiens, UniProt Q9UM73, L1196M)
ALK(L1196M), sequence (Q9UM73 whole entry L1196M): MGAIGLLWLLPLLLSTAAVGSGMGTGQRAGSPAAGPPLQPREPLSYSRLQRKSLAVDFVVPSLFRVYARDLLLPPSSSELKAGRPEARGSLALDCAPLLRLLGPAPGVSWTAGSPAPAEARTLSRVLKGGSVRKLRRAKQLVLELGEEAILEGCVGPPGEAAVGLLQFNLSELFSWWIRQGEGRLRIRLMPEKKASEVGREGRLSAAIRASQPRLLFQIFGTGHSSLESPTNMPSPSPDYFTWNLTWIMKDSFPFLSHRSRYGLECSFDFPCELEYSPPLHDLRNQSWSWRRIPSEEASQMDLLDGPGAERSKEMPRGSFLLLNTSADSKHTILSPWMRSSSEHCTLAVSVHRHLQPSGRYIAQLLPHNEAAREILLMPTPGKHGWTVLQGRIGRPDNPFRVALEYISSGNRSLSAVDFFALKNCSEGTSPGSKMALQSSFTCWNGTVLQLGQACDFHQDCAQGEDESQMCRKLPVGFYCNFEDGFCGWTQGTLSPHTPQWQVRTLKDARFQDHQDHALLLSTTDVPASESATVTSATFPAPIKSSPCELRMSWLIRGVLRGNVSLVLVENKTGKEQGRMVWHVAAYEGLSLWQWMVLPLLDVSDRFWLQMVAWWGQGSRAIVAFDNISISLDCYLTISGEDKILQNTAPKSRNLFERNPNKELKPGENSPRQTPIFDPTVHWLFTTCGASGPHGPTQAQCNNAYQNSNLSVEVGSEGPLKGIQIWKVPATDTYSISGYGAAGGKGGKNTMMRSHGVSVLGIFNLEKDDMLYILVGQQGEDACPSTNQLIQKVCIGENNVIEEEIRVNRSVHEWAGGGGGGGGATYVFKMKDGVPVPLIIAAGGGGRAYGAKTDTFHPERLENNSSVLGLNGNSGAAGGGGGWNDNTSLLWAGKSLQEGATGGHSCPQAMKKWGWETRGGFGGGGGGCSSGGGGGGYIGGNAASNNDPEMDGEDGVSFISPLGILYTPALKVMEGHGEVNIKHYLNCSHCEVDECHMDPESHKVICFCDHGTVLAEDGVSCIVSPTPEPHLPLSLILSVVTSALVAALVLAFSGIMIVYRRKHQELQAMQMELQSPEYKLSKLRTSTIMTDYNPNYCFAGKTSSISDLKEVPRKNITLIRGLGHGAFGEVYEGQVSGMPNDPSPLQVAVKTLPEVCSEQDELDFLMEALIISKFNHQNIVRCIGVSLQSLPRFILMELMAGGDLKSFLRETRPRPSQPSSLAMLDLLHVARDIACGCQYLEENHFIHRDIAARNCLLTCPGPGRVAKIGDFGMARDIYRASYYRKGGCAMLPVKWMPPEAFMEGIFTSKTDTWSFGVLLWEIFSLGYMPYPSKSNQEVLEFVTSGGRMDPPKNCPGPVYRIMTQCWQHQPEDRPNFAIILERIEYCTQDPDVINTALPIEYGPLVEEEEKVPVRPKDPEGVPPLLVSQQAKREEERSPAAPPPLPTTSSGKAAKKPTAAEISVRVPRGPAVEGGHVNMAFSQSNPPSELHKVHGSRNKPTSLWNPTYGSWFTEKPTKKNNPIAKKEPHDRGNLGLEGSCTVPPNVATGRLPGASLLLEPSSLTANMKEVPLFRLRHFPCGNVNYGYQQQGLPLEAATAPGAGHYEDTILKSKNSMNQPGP

PIP5K1A = PIP5K1A (Homo sapiens, UniProt Q99755)
[1] = target: T4, RSK1(Kin.Dom.1-N-terminal) (Homo sapiens, UniProt Q15418)
T4 construct: gene RPS6KA1; Kin.Dom.1-N-terminal

MAP4K2 = MAP4K2 (Homo sapiens, UniProt Q12851)
MAP4K2, sequence (Q12851 whole entry): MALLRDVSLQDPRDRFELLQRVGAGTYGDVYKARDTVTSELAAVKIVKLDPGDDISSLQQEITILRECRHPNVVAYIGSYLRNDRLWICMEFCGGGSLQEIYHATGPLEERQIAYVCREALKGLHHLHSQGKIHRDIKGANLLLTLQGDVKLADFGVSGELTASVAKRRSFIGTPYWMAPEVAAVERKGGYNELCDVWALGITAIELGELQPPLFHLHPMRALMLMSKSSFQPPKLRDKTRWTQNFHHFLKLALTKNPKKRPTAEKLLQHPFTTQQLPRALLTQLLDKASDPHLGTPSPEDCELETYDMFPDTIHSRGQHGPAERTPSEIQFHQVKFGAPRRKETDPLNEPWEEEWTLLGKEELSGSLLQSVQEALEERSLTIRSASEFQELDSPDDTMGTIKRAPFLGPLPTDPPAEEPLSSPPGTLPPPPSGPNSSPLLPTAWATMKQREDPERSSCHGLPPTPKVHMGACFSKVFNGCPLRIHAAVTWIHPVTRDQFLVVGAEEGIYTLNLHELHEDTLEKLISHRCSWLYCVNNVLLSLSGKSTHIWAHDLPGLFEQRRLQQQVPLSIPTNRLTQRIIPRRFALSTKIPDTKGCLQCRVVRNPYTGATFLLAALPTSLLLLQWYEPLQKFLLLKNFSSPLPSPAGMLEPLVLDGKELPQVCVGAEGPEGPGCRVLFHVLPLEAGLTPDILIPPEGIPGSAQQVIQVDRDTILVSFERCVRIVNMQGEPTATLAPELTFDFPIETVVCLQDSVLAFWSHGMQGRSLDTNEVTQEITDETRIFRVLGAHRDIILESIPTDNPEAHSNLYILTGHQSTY

ERK4 = target: T5, ERK4 (Homo sapiens, UniProt P31152)
T5 construct: gene MAPK4
T5 sequence (P31152 whole entry): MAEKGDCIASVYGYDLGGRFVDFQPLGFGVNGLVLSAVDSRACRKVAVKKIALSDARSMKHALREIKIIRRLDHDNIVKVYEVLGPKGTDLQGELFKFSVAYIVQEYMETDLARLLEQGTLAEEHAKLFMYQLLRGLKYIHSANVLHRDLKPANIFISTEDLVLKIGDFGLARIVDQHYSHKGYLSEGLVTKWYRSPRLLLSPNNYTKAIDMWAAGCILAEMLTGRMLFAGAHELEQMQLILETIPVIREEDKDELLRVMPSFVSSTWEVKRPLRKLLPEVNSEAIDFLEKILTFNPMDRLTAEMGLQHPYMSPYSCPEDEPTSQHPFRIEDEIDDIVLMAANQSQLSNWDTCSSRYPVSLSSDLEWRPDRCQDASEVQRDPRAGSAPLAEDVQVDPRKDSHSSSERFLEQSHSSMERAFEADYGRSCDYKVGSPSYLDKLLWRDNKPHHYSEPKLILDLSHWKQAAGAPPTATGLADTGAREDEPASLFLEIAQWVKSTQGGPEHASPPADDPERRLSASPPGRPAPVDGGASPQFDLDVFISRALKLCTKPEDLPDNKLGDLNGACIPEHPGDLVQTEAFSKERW

DDR1 = DDR1 (Homo sapiens, UniProt Q08345)
PKN1 = PKN1 (Homo sapiens, UniProt Q16512)

`c1ccc2c(c1)Sc1ccccc1N2CCN1CCOCC1` [J54] showed a remaining binding (TAOK2) of 100%, a remaining binding (FLT3-autoinhibited) of 100% and a remaining binding (CSNK1G3) of 100%. It also gave a remaining binding (FLT3(R834Q)) of 100%, a remaining binding (CDC2L5) of 92% and a remaining binding (NEK11) of 100%. The remaining binding (PIP5K2C) was 100%, the remaining binding (SRMS) was 100% and the remaining binding (FLT3(ITD,D835V)) was 57%. It also gave a remaining binding (CAMK2B) of 93%, a remaining binding (ABL1-phosphorylated) of 71% and a remaining binding (ALK(L1196M)) of 100%. For the same molecule, the remaining binding (PIP5K1A) was 46%, the remaining binding [1] was 100% and the remaining binding (MAP4K2) was 100%. For the same molecule, the remaining binding (ERK4) was 100%, the remaining binding (DDR1) was 100% and the remaining binding (PKN1) was 100%.
